The results in this text go back to a melting point compilation (Tetko et al.; mined from patent text by program, amines drawn as free bases though some values may be those of a salt).

A word on the melting point: it is the temperature, or range, at which the solid turns liquid.

For the compound `N#Cc1ccccc1-c1ccc2[nH]c(CCl)nc2c1`, the melting point fell in the range of 150 to 158 °C.

`CSc1ccc(-c2nn(Cc3ccccc3)c(=O)cc2-c2ccccc2)cc1` yielded a melting point of 157 to 158 °C.

As for `COc1ccc(C=O)c(Cl)c1OCc1ccccc1`, the melting point was in the range of 86 to 88 °C. The figure for `COc1ccc2c(c1)CC(NC(C)=O)CC2` (centres undefined) is 105 to 108 °C; for `CC(C)(C)NCCOP1Oc2c(cc(C(C)(C)C)cc2C(C)(C)C)Cc2cc(C(C)(C)C)cc(C(C)(C)C)c2O1` it is 189 to 192 °C; for `Cc1cccc(Nc2cc(Nc3ccc(OCCCO)cc3)ncn2)c1` it is 196 to 200 °C. In turn, `c1cc(-c2n[nH]c3c2Cc2ccc(CN4CCSCC4)cc2-3)cs1` displayed a melting point of 193 to 195 °C. Compound `O=C(O)Cc1ccc(O)c(OCc2ccccc2)c1` displayed a melting point of 130 to 133 °C. The figure for `CP(=O)(O)c1ccc(C(=O)O)cc1` is 238 to 240 °C; for `CC(C)(C)c1cc(C(=O)c2ccccc2C(=O)O)cc(C(C)(C)C)c1O` it is 173 to 174 °C; for `CCOC(=O)C(Cc1ccc(C(C)C)cc1)C(=O)N[C@@H](CC(C)C)C(=O)OC(C)(C)C` (some centres undefined) it is 68 to 73 °C.

`CC(C)c1cccc(C(C)C)c1NC(=O)CN1C(=O)N(c2ccccc2)C2(CCCC2)C1=O` displayed a melting point of 275 to 277 °C. For `O=c1c2ccccc2ccc2cc(CCO)ccc12`, the melting point lay in the range of 73 to 75 °C. The same measure for `CC(=O)OC1CCC2(C)C(=CCC3C2CCC2(C)C(OC(C)=O)CCC32)C1` (centres undefined): 163 to 165 °C; for `O=C(O)c1coc2ccc3ccc(O)cc3c2c1=O`: 294 to 296 °C; for `CC(=O)Nc1nc(CN2CCN(C(c3ccccc3)c3ccccc3)CC2)c(Cl)s1`: 227 to 230 °C.

As for `CC(=O)N(C)c1ccc(-c2ccnc3c(C(=O)c4ccco4)cnn23)cc1`, the melting point fell in the range of 202 to 204 °C. Consider `N#CCCc1ccnc(-c2nc(=O)c3ccccc3s2)c1`, for which the melting point fell in the range of 178 to 179 °C.

In the case of `O=C(c1ccc(Cl)c(Cl)c1)N1CCCC(c2cccs2)=N1`, the melting point lay within 124 to 125 °C. In turn, `Cc1ccnc(-c2ccc(Br)cc2)c1` registered a melting point of 126 °C. As for `CN=C1SC(=NOC(=O)NC)C(C)(C)S1`, the melting point was in the range of 68 to 70 °C. The figure for `CC(=O)C(C)(O)c1ccc(O)cc1` (centres undefined) is 101 to 102 °C; for `CCOc1ccc(S(=O)(=O)N2CCN(C)CC2)cc1-c1nc2c([nH]1)c1nncn1c(=O)n2CC` it is 248 °C. `CC(C)OC1=CC=CN2C1=NC(=O)C2(Cc1ccccc1)Cc1ccccc1` registered a melting point of 247 to 248 °C. The same measure for `CN(C)S(=O)(=O)N1CCNC1=O`: 129 °C.

The compound `CC(C)[Si](Oc1ccc2c(c1)OCC(N1CCC(O)(c3ccccc3)CC1)C2=O)(C(C)C)C(C)C` (centres undefined) registered a melting point of 132 °C.

`Cc1ccc2c3c(ccc2n1)OCC(CN1CCC(C#N)(c2ccccc2)CC1)O3` (centres undefined) registered a melting point of 185 to 187 °C.

As for `CCCCCc1c(C(C)C)cc(C(C)C)c(C(C)=O)c1-c1ccc(F)cc1`, the melting point was 123 to 124 °C. The figure for `O=C(Nc1cccc(S(=O)(=O)C(F)(F)F)c1)c1ccc2ccccc2c1O` is 194 to 195 °C; for `COc1cccc(-c2ncc(C(=O)N(C)Cc3cccc(O)c3)s2)c1F` it is 140 °C; for `CN(C)CCC(=O)c1c(-c2ccccc2)[nH]c2ccccc12` it is 136 to 138 °C. `CC(=O)CC(=O)NCC#N` returned a melting point of 63 to 65 °C. The figure for `CCCCCCCCCCOc1cccc(C(=O)N(CC(=O)O)CC(=O)O)c1` is 87 to 90 °C; for `COc1ccnc(N2CCN(C(=S)c3ccccc3)CC2)n1` it is 125 to 129 °C; for `O=C1CCCN1c1cccc(-c2ccnc3c([N+](=O)[O-])cnn23)c1` it is 226 to 228 °C. In the case of `O=C(NCCO)c1cccc(-c2ccnc3cc(Cc4cccc(C(F)(F)F)c4)oc23)c1`, the melting point was in the range of 158 to 159 °C. The same measure for `COc1ccc(N=Nc2cc(OC)cc(C(C)(C)C)c2O)cc1`: 125 to 127 °C; for `CCN(CC)CCSc1ccc(/C=C/C(=O)OC)cc1[N+](=O)[O-]`: 57.4 to 59.1 °C; for `Nn1cnc2ccccc2c1=O`: 209 to 210 °C. The same measure for `CCCCCCCC(=O)NNC(=O)N1Cc2ccccc2Oc2ccc(Cl)cc21`: 127 to 129 °C. The same measure for `Cc1cc(CCCOc2c(Cl)cc(C(=O)O)cc2Cl)on1`: 156 to 157 °C; for `CC(C)(C)Oc1cccc(C(=O)Nc2ccc(OCCN3CCOCC3)c3ccccc23)c1`: 135 to 136 °C. In turn, `CCOC(=O)CN(CC(=O)OCC)C(=O)c1cc(OCCCCCCCCCCCCOc2ccccc2)ccc1OCc1ccccc1` came in with a melting point of 49 to 50 °C. The same measure for `CC(CCC(=O)O)(c1ccc(OCc2ccc3ccc(Cl)cc3n2)cc1)c1ccc(OCc2ccc3ccc(Cl)cc3n2)cc1`: 88 to 90 °C; for `Cc1sc2c(Br)c3ccccc3c(-c3cc(Br)c(O[C@@H](CCc4ccccc4)C(=O)O)c(Br)c3)c2c1C`: 176 to 177 °C. Turning to `N#Cc1c2ccccc2nc2ccc(Cl)cc12`, the melting point was determined as 208 °C. The figure for `CC(=O)N(C#N)Cc1ccc(CN(C#N)C(C)=O)cc1` is 160 to 162 °C. The figure for `O=C(c1ccccc1)C(CCCCl)c1ccccc1` (centres undefined) is 72 to 74 °C.

With `NCc1ccc(CC(=O)Nc2cccc(C(=O)NCCC(=O)O)c2)cc1`, the melting point lay within 108 to 109 °C. The figure for `CC(C)(C)OC(=O)N1C[C@H](OS(C)(=O)=O)C[C@H]1CO` is 95 to 96 °C; for `CCCc1nc2ccccn2c(=O)c1-c1ccc(Cl)cc1` it is 109 to 110 °C. The figure for `COc1c(F)ccc2c1C(C)(C)CC(O)(C(F)(F)F)C2Nc1cccc2c(=O)n(C)ncc12` (centres undefined) is 262 to 263 °C; for `CC1(C)CCC(C)(C)c2cc(C(COc3ccc(C(=O)O)c(O)c3)=NO)ccc21` it is 220 to 222 °C; for `O=P(c1ccccc1)(c1ccccc1)c1cc(P(=O)(c2ccccc2)c2ccccc2)nc(P(=O)(c2ccccc2)c2ccccc2)n1` it is 235 to 236 °C. As for `CC(=O)OC1Cc2ccccc2N(C#N)c2ccccc21` (centres undefined), the melting point lay within 108 to 119 °C. The figure for `CCSc1nc(C#N)c(C#N)nc1Cl` is 55 to 58.5 °C; for `Nc1ccccc1C(=O)Nc1cccnc1Cl` it is 172 to 175 °C. For the compound `CCOC(=O)c1c(C(F)(F)F)nc(C(F)(F)F)c(C(=O)O)c1Cl`, the melting point lay within 113 to 115 °C. The figure for `CC(=O)OC1CCc2c(Nc3ccc(C#N)cc3)ncnc21` (centres undefined) is 215 to 217 °C.

For `Cc1ccc(CC(=O)O)c(OCc2ccc(OCc3nc(-c4ccccc4)oc3C)cc2)n1`, the melting point is 138 to 139 °C. The same measure for `Clc1ccc(CNc2cncnc2)cc1`: 121 °C; for `CCC(O)(c1cccc(O)c1)c1nccs1` (centres undefined): 145 to 146 °C. `CCCCCS(=O)(=O)NC(=O)CCc1ccc(OCCOC)cc1Oc1ccccc1` came in with a melting point of 70.4 to 70.5 °C. Turning to `CN1CCC(N(CCO)S(=O)(=O)c2ccc(Nc3nccc(Nc4ccc(F)cc4)n3)cc2)CC1`, the melting point is 125 to 135 °C.

In turn, `O=C1c2cccc3cc4ccccc4c(c23)C(=O)N1CCNCCN1C(=O)c2cccc3cc4ccccc4c(c23)C1=O` yielded a melting point of 271 °C. The figure for `NC(=O)c1ccccc1Sc1ccccc1[N+](=O)[O-]` is 166 to 167 °C; for `C#CCN1C(Oc2ccc(C)cc2)=NS(=O)(=O)N=C1Oc1ccc(C)cc1` it is 279 to 280 °C. The same measure for `CC(=O)N1CCC(C(=O)c2ccc(N3CCCCC3)cc2)CC1`: 122 to 125 °C; for `CCOc1ccccc1CNc1c(C#N)ccnc1C(N)=O`: 150 to 152 °C; for `N#Cc1cc(O)c(O)c(C#N)c1CCCCC(=O)O`: 210 to 215 °C.

The compound `COC(=O)c1c(OC)c([N+](=O)[O-])c(C(=O)OC)c(OC)c1[N+](=O)[O-]` displayed a melting point of 126 to 127 °C. The figure for `NS(=O)(=O)c1ccc(-n2nc(C(=O)O)cc2-c2ccccc2)cc1` is 188 to 191 °C; for `O=C(N[C@@H]1CCc2ccccc21)c1nn(-c2ccc(F)cc2F)c2c1C1CCC2C1` (some centres undefined) it is 158 to 161 °C. The same measure for `Cc1cccc(CC(Nc2ccccc2)C(=O)NC(C#N)COCc2cccc(-c3nnn[nH]3)c2)c1` (centres undefined): 120 to 122 °C; for `CNc1nc(C)c(-c2ccnc(Nc3ccc(CCO)cc3)n2)s1`: 216 to 218 °C. The figure for `Cc1nc2c3c(c(C(=O)NCC(C)O)cc2n1C)CCC1(Cc2ccccc2C1)N3` (centres undefined) is 224 to 225 °C. `CN(C)c1nnc(SCC(=O)C23CC4CC(CC(C4)C2)C3)s1` had a melting point of 150 to 151 °C. The same measure for `NS(=O)(=O)c1ccc(-c2cnn(C3CC=CCC3)c(=O)c2-c2ccc(F)cc2)cc1` (centres undefined): 206 to 208 °C; for `COC(=O)c1c(C(F)F)nc(C(F)(F)F)c(-n2cccc2)c1C1CCC1`: 70 to 71 °C; for `COCC(=O)Oc1cc(-n2c(=O)cc(C(F)(F)F)n(C)c2=O)c(F)cc1Cl`: 101 to 103 °C. Compound `CC1(C)CC(=O)N(CC(COc2ccc(-c3ccc(C#N)cc3)cc2)N(O)C=O)C(=O)C1` (centres undefined) registered a melting point of 121 °C. Compound `Cc1c(Cl)cccc1NC(=O)C(C)(C)C` had a melting point of 113 to 114 °C. The compound `O=C1OC(=Cc2ccccc2)c2ccc(-c3ccccc3)cc21` yielded a melting point of 187 °C. Regarding `COc1ccc(C=CC(=O)N2CC(CCl)c3c2cc(N)c2ccccc32)cc1` (centres undefined), the melting point was 114 to 116 °C.

The compound `CCc1cnc(CSc2cnc(N)s2)o1` displayed a melting point of 119 to 120 °C. The compound `N#Cc1ccc2c(c1)C(=O)c1ccccc1OC2` registered a melting point of 116 to 127 °C. The same measure for `CNC(=O)Oc1ccc(NC(=O)C(C)Cl)c(C)c1` (centres undefined): 167 to 170 °C. The figure for `O=C(O)CCCC(=O)Nc1cccc(-c2nnc(-c3ccc(C(F)(F)F)cc3)nn2)c1` is 246 to 248 °C; for `CCCCCCCCCCN(OCc1ccccc1)C(=O)Nc1c(C(C)C)cccc1C(C)C` it is 91 to 93 °C.
